Experimental data published in paper PMC5589570, “The antigenic identity of human class I MHC phosphopeptides is critically dependent upon phosphorylation status” (Oncotarget, 2017).
pKd: −log10 of the molar value. Like-named read-outs stand apart in the source and are kept apart here. Square brackets hold non-standard residues; d marks the D form. Ends that are not written are not given here. Peptide text beside a SMILES is read from it. pS = N[C@@H](COP(=O)(O)O)C(=O)O

Legend:
HLA-A2 [1] = biological target: T1, HLA-A2 (Homo sapiens, UniProt P04439, D140Y/D185E/D98H/E176V/E277Q/G131W/G231S/I119V/I121R/I166T/I218V/L300P/L318F/N151K/N90K/P208A/P217A/Q86G/Q94H/R138H/R169H/T345S); assay: Competitive peptide-MHC affinity assay (displacement of radiolabeled peptide); details: competitive binding, IC50 of displacement of radiolabeled peptide taken as approximation of Kd; 100,000-fold concentration range, each concentration in triplicate; W6/32 capture; read-out: Kd (pMHC affinity for HLA-A2)
T1 construct: made in house
Method: HLA-A2 heavy chain was expressed in E. coli, refolded with β2M and the peptide […], and purified as described above. Competitive peptide binding assays were carried out as described. Test peptide concentrations covered a 100,000-fold range, with each concentration assayed in triplicate. MHC-peptide complexes were captured on microplates coated with monoclonal antibody W6/32 (to human HLA) and washed, and radioactivity quantified with a microscintillation counter. The concentration of test peptide that displaced 50% of the radiolabeled peptide (IC50) was calculated. In these conditions (in which the concentration of the label is less than the concentration of MHC and the IC50 is greater than or equal to the concentration of MHC), the IC50 is a reasonable approximation of the dissociation constant.

TCRpCDC25b = assay: SPR (BIAcore) TCR/peptide-MHC binding, HLA-A2-peptide complex injected over immobilised TCR; parameters: species or system mice; details: for specific binding of HLA-A2-peptide complex to immobilised TCRpCDC25b: responses compared with control surfaces (LDN5 and streptavidin), Figure 7A
Text: Having established that phosphorylation has diverse effects on epitope structure, we aimed to test whether a phosphorylated epitope could be distinguished from its unmodified counterpart by the TCR. We previously generated phosphopeptide-specific CD8^+ T cells by immunising mice expressing a transgenic recombinant HLA-A*0201 molecule (AAD) with activated bone-marrow-derived dendritic cells pulsed with synthetic phosphopeptides corresponding to those naturally presented on the surface of human tumour cell lines. Despite the ability to isolate functional phosphopeptide specific T-cells, attempts to generate clonal populations of RQA_V specific T-cells for TCR isolation or produce soluble TCRs of sufficient quality from T-cell clones specific for PKD and RQI were unsuccessful. However we were able to generate soluble TCR (termed TCRpCDC25b) using cDNA sequences isolated from a T cell clone that recognised a phosphopeptide epitope derived from the CDC25b protein (GLLGpSPVRA, subsequently termed GLLGpS) of sufficient quality for surface plasmon resonance analysis.
To investigate if recognition was dependent on the GLLGS amino acid sequence, we also tested binding of immobilised TCRpCDC25b to HLA-A2 containing a different phosphopeptide featuring a p-Ser at position 5 (SLLTpSPPKA (termed SLLTpS) derived from Thyroid hormone receptor interacting protein 12). […] We then measured the strength of TCRpCDC25b phosphopeptide recognition by equilibrium affinity analysis, repeating injections of HLA-A2-GLLGpS over a range of concentrations (Figure 7B). […] In both orientations, the presence of low-level protein aggregates was evident at higher concentrations.
Experiments utilised a BIAcore 3000 and HBS-EP buffer, at a flow rate of 10 μl.min^−1. For HLA-peptide injections, recombinant TCRs were produced in the Drosophila expression system incorporating C-terminal biotinylation tags, biotinylated in vitro using BirA, and immobilised to streptavidin-coated CM5 surfaces. […] Data were analysed using BIAevaluation 3.1 and Origin graphing software.

HLA-A2 [2] = biological target: T1, HLA-A2; parameters: method as in PMID 18836451; details: binding of peptide to HLA-A2, modified vs unmodified form; read-out: Kd (pMHC affinity for HLA-A2); cited from earlier work

Row | Molecule | pKd (HLA-A2 [1]) | further results
1 | CC[C@H](C)[C@H](NC(=O)[C@H](CO)NC(=O)[C@H](C)NC(=O)[C@H](CCC(N)=O)NC(=O)[C@@H](N)CCCNC(=N)N)C(=O)N[C@@H](CCC(=O)O)C(=O)N[C@@H](CC(C)C)C(=O)N1CCC[C@H]1C(=O)N[C@@H](CO)C(=O)N[C@@H](CCSC)C(=O)N[C@@H](C)C(=O)N[C@H](C(=O)O)C(C)C [RQA_Vnp] | 7.59 | –
2 | CC[C@H](C)[C@H](NC(=O)[C@H](COP(=O)(O)O)NC(=O)[C@H](C)NC(=O)[C@H](CCC(N)=O)NC(=O)[C@@H](N)CCCNC(=N)N)C(=O)N[C@@H](CCC(=O)O)C(=O)N[C@@H](CC(C)C)C(=O)N1CCC[C@H]1C(=O)N[C@@H](CO)C(=O)N[C@@H](CCSC)C(=O)N[C@@H](C)C(=O)N[C@H](C(=O)O)C(C)C [RQA_Vp] | 7.22 | –
3 | CC[C@H](C)[C@H](NC(=O)[C@H](CCC(N)=O)NC(=O)[C@@H](N)CCCNC(=N)N)C(=O)N[C@@H](COP(=O)(O)O)C(=O)N[C@@H](CCC(N)=O)C(=O)N[C@@H](CC(=O)O)C(=O)N[C@H](C(=O)N[C@@H](CCCCN)C(=O)N[C@@H](CC(C)C)C(=O)O)C(C)C [RQIp] (H-RQI[pS]QDVKL-OH) | 7.59 | –
4 | GLLGpSPVRA | – | specific binding of HLA-A2-peptide complex to immobilised TCRpCDC25b (TCRpCDC25b): specific binding; pKd (TCRpCDC25b; two independent equilibrium analyses, once in either orientation, Scatchard analyses and hyperbolic fitting, read-out: Kd values from both orientations (range)): 4.39 to 4.46
5 | RQApSLSISV [PKD2p, canonical phosphopeptide antigen derived from Protein Kinase D2] | – | pKd (HLA-A2 [2]): 7.41
6 | RQISQDVKL [RQInp] | 5.72 | –
7 | SLLTpSPPKA [reference compound] | – | specific binding of HLA-A2-peptide complex to immobilised TCRpCDC25b (TCRpCDC25b): identical responses over TCRpCDC25b and control surfaces
